{"source": "paper PMC4772543", "about": "“Immune responses to Mycobacterial heat shock protein 70 accompany self-reactivity to human BiP in rheumatoid arthritis” (Scientific Reports, 2016)", "key": {"[1]": {"tested_on": "PBMCs from shared epitope (SE)-positive RA patients", "assay": "Proliferation of PBMCs from RA patients in response to MycHSP70-derived peptides (3H-thymidine uptake)", "assay_type": "cell-based, human", "protocol": "Figure 3 MycHSP70_287–306 was a HLA-DR4-restricted epitope in RA. (A) The proliferation of PBMCs in RA patients (Shared epitope (SE) +/+ n = 12, SE +/− n = 22, SE−/− n = 9) and HDs (SE +/− n = 10) in response to MycHSP70_287–306. Proliferation was determined by the incorporation of [3]-H thymidine. The stimulation index (SI) was calculated using the following equation: (median thymidine uptake to an antigen)/(median thymidine uptake in the absence of an antigen). Horizontal line: the median. (B) Amino acid sequences of MycHSP70 (lower lines) and human BiP (upper lines) near the epitopes. Epitope sequences are indicated in bold letters. […]\nPBMCs (1 × 10^6/mL) isolated with Ficoll-Paque (GE Healthcare) were cultured in the presence or absence of each peptide (10 μg/mL) with RPMI 1640 medium supplemented with 10% human serum, 2 mM L-glutamine, 100 U/ml penicillin, and 100 μg/ml streptomycin in a humidified incubator at 37 °C, 5% CO2, for 96 hours. […] Counts per minute were measured with a scintillation counter. In some experiments, the culture supernatants were collected after a 72-hour incubation and cytokine concentrations were measured in the culture supernatants by a human IFN-γ high sensitivity ELISA kit and human IL-17 high sensitivity ELISA kit (eBioscience). […]"}, "[2]": {"tested_on": "PBMCs of HLA-DR4-positive RA patients", "assay": "Peptide-induced cytokine secretion from PBMCs (ELISA)", "assay_type": "cell-based, human", "protocol": "Figure 3 MycHSP70_287–306 was a HLA-DR4-restricted epitope in RA. (A) The proliferation of PBMCs in RA patients (Shared epitope (SE) +/+ n = 12, SE +/− n = 22, SE−/− n = 9) and HDs (SE +/− n = 10) in response to MycHSP70_287–306. Proliferation was determined by the incorporation of [3]-H thymidine. The stimulation index (SI) was calculated using the following equation: (median thymidine uptake to an antigen)/(median thymidine uptake in the absence of an antigen). Horizontal line: the median. (B) Amino acid sequences of MycHSP70 (lower lines) and human BiP (upper lines) near the epitopes. Epitope sequences are indicated in bold letters. (C) Relationship between MycHSP70_287–306-induced proliferation and BiP336–355-induced proliferation in RA PBMCs (9 patients with SE +/+ and 14 patients with SE +/−). (D) Blockade of the MycHSP287–306-induced proliferation of PBMCs from HLA-DR4-positive RA patients (n = 6) using an anti-HLA-DR antibody. (E) The secretion of MycHSP287–306-induced IFN-γ from the PBMCs of HLA-DR4-positive HDs (n = 6) and RA patients (n = 8). (F) Blockade of MycHSP287–306-induced cytokine secretion from the PBMCs of HLA-DR4-positive RA patients (n = 6) using an anti-HLA-DR antibody. *p < 0.05, **p < 0.01, ***p < 0.001.\nPBMCs (1 × 10^6/mL) isolated with Ficoll-Paque (GE Healthcare) were cultured in the presence or absence of each peptide (10 μg/mL) with RPMI 1640 medium supplemented with 10% human serum, 2 mM L-glutamine, 100 U/ml penicillin, and 100 μg/ml streptomycin in a humidified incubator at 37 °C, 5% CO2, for 96 hours. Cells were incubated for 18 h following a ^3H-thymidine pulse into each well and harvested using a semiautomated sample harvester. Counts per minute were measured with a scintillation counter. In some experiments, the culture supernatants were collected after a 72-hour incubation and cytokine concentrations were measured in the culture supernatants by a human IFN-γ high sensitivity ELISA kit and human IL-17 high sensitivity ELISA kit (eBioscience). […]"}, "[3]": {"tested_on": "CD4+ T cells from MycHSP70-immunized HLA-DR4 transgenic mice", "assay": "Splenic CD4+ T cell proliferation from MycHSP70-immunized HLA-DR4 transgenic mice in response to epitopes", "assay_type": "cell-based, mouse", "conditions": "antigen 10 μg/mL, 72 h, irradiated splenocytes, 3H-thymidine", "protocol": "Figure 5 Immunization of HLA-DR4 transgenic mice with MycHSP70. (A) HLA-DR4 transgenic mice were immunized with recombinant MycHSP70. Serum anti-MycHSP70 and anti-mouse BiP antibody titers were measured in the 21 days following the first immunization. (B) Splenic CD4+ T cell proliferation from MycHSP70-immunized HLA-DR4 transgenic mice in response to MycHSP70_287–306 and BiP336–355 epitopes. Proliferation was determined by the incorporation of [3]-H thymidine. Data were representative of at least three independent trials. ***p < 0.001.\nHLA-DR4 transgenic mice were obtained from Taconic, immunized twice (day 0, 14) with 100 μg of MycHSP70 with the same volume of complete Freund’s adjuvant subcutaneously into the tails, and sacrificed on day 21. MACS-purified CD4^+ T cells (1 × 10^5/mL) were cultured with irradiated splenocytes (1 × 10^6/mL) and an antigen (10 μg/mL) in RPMI 1640 medium supplemented with 5% FCS, 2 mM L-glutamine, 100 U/ml penicillin, 100 μg/ml streptomycin, and 5 × 10^−5 M 2-mercaptoethanol in a humidified incubator at 37 °C, 5% CO2, for 72 h. ^3H-thymidine was pulsed to each well, cells were harvested after an 18-hour incubation, and analyzed with a scintillation counter."}, "[4]": {"conditions": "peptide 10 μg/mL, supernatant after 72-hour incubation, ELISA"}}}
{"sequence": "DRTRKPFQSVIADTGISVSE [MycHSP70_287–306]", "values": [{"measurement": "peptide-induced PBMC proliferation under blockade of HLA-DR", "setting": "[1]; HLA-DR4-positive RA patients n = 6, anti-HLA DR monoclonal antibody (L243) 10 μg/mL", "value": "clearly inhibited"}, {"measurement": "proliferation of PBMCs, mean stimulation index", "setting": "[1]; screen of 43 MycHSP70-derived 20-mer peptides, 10 μg/mL, 96 hours, 3H-thymidine uptake, HLA-DR4-positive RA patients n = 20", "value": "highest proliferative responses"}, {"measurement": "peptide-induced IFN-γ and IL-17 secretion with anti-HLA-DR antibody", "setting": "[2]; HLA-DR4-positive RA patients n = 6, anti-HLA DR antibody (L243) 10 μg/mL", "value": "blocked"}, {"measurement": "secretion of interferon (IFN)-γ", "setting": "[2]; [4]", "value": "induced"}, {"measurement": "secretion of interleukin (IL)-17", "setting": "[2]; [4]", "value": "induced"}, {"measurement": "CD4+ T cell proliferation in response to peptide", "setting": "[3]", "value": "significant CD4^+ T cell proliferation was induced"}]}
